Reference: patent US20060058394A1, “Medicine of post-traumatic stress disorder” (KYOTO UNIVERSITY, priority 2001, published 2006)

Tests used:
C57BL/6 mice = assay: Decrease of spontaneous locomotor activity by LPS induction; format: in vivo; details: wild mice; LPS 0.1 mg/kg i.p.; 0.1% (W/W) EP1 antagonist mixed with food; 12 hours, 8 p.m. to 8 a.m.; FIG. 4
Description: 0.1 mg/kg of LPS is intraperitoneally administered to C57BL/6 mice, they are put in acrylic cage (30×45×35 cm (height), and the momentum for 12 hours from the 8 p.m. to 8 a.m. of next morning was measured with mouse action meter, Infrared photo beam counter (Neuroscience Co., Ltd., Tokyo, Japan). 0.1% (W/W) of EP1 antagonist (the same as experiment example 1 was used) mixed with food was given. Similarly, the difference of the momentum by administering LPS were compared by using wild mice (WT) and EP1 receptor-deficient mice.

ACTH in plasma = assay: ACTH production by LPS induction; format: in vivo, C57BL/6 strain mice; details: wild type mice; LPS 0.1 mg/kg i.p.; blood 60 minutes after LPS; EP1 antagonist given 1 hour before LPS; FIG. 2
Description: 0.1 mg/kg of LPS (lipopolysaccharide) as an infectious stress was intraperitoneally administered to C57BL/6 strain mice. The blood be gathered at 60 minutes later after administering LPS, the induced stress reaction, that is, activation of hypothalamus-pituitary-adrenal system were measured as a marker on ACTH in plasma. ACTH was measured with ACTH IRMA kit (Mitsubishi Yuka Medical Co., Tokyo, Japan). (4-[2-(N-isobutyl-2-furanylsulfonylamino)-5-trifluoromethylphenoxymethyl]cinna mic acid (the compound which had been described to example 18(94) in WO98/27053, was used.), which is EP1 antagonist, was administered 1 hour ago before administering LPS.

wild mice = assay: Social behaviors on cohabiting with young male mice (smelling action); format: in vivo; details: wild mice cohabiting with young male mice (5 weeks of age)
Excerpt: (§1) The action admitted when wild mice (WT) or EP1 receptor-deficient mice cohabit with young male mice (5 weeks of ages) was observed.

WT mice = assay: Action of jumping off platform; format: in vivo; details: 10 mg/kg i.p., about 20 cm high platform, 7 minutes, FIG. 5
Description: Wild mice, EP1 or EP3 receptor-deficient mice, or WT mice to which 10 mg/kg of EP1 antagonist (the same as experiment example 1 was used.) was intraperitoneally administered put on about 20 cm high platform (beaker), and the presence of the action of jumping off was observed.

[1] = tested on: EP1 receptor-deficient mice; assay: Spontaneous locomotor activity after administering haloperidol; format: in vivo; details: EP1 receptor-deficient mice given haloperidol
Description: Furthermore, it was also confirmed that the spontaneous locomotor activity decreased when haloperidol was administered to EP1 receptor-deficient mice.

[2] = tested on: EP1 receptor-deficient mice; assay: Aggressive behavior after administering haloperidol; format: in vivo; details: EP1 receptor-deficient mice given haloperidol
Description: After two male mice (wild mice (WT) or EP1 receptor-deficient mice) were put in 3 L of glass container and stimulated by the electroshock (1 H, 200 m seconds, 0.3 mA for 3 minutes), these aggressive behaviors were recorded to the video. The time up to the first aggressive behavior (latency; second) and the attack frequency, and total attack time was compared.
as §1
As a result of experiment similar to experiment example 6 by administering haloperidol to EP1 receptor-deficient mice, it was confirmed that the time up to the first attack elongates, the attack frequency decreases, and the total of attack time shortens.

SMILES: CC(C)CN(c1ccc(C(F)(F)F)cc1OCc1ccc(C=CC(=O)O)cc1)S(=O)(=O)c1ccco1 [EP1 antagonist, 4-[2-(N-isobutyl-2-furanylsulfonylamino)-5-trifluoromethylphenoxymethyl]cinna mic acid]
- decrease of the spontaneous locomotor activity induced by LPS (C57BL/6 mice): has decreased
- amount of ACTH production by LPS-induction (ACTH in plasma): significantly decreases
- time of the smelling action (wild mice): shortened
- mice jumped off the platform (WT mice): All mice in the EP1 antagonist administrated group jumped off the platform 7 minutes later

SMILES: O=C(CCCN1CCC(O)(c2ccc(Cl)cc2)CC1)c1ccc(F)cc1 [haloperidol]
- spontaneous locomotor activity [1]: decreased
- attack frequency [2]: decreases
- time up to the first attack [2]: elongates
- total of attack time [2]: shortens
